{"source": "patent US20060177430A1", "about": "“Treatment of ocular disorders with ophthalmic formulations containing methylsulfonylmethane as a transport enhancer” (Chakshu Research Inc, priority 2002, published 2006)", "key": {"[1]": {"assay": "EDTA pharmacokinetic study: 14C-EDTA in structures of the rat eye (Example 25)", "quoted_text": "Objectives. Determine the amount of C-14 labeled EDTA that penetrates into the various structures of the rat eye (cornea, aqueous humor, lens, vitreous, and retina), using eye drops that contain MSM. Carry out a comparison of two different eye drop formulations that differed in their EDTA concentration.\n8 μl of Eye Drop 1 was applied to the rats' eyes. […] The eyeballs were quickly washed 6 times in 5 ml of saline each time. Aqueous humor was aspirated from both eyes and dispensed in 50 μl of PBS. Cornea, lens, vitreous and retina from each eye were separated and placed in Eppendorf tubes containing H2O and 10N NaOH in the following ratio:\n8 μl of Eye Drop 2 was applied to the rat eye. After 0.5, 2 and 4 hours, the rats were sacrificed and the experiment conducted in the same way as for Eye Drop 1."}, "in vivo": {"assay": "in vivo", "method": "The ocular pharmacokinetic behavior of EDTA, when administered as a component of Formulation 1, was evaluated in rabbits over a period of five days. Two healthy male rabbits, each approximately 2.5 to 3 kg in body weight, were used for the study.\nOn day 1 of the study, one drop of Formulation 1 was topically instilled in each eye of both rabbits (four eyes total). No additional eye drops were administered during the course of the study. Samples of aqueous humor were extracted at 15 min, 30 min, 1 hr, 4 hrs, 3 days, and 5 days following administration (as indicated in the following table). Vitreous humor was extracted at 5 days following administration from all four eyes. The concentration of EDTA was measured in all the samples of aqueous humor and vitreous humor by HPLC analysis.\nIn the following in vivo experiment, the ocular pharmacokinetic behavior of EDTA, when administered with MSM as permeation enhancing penetrating agent, was evaluated in rabbits over a period of five days. Two healthy male rabbits, each approximately 2.5 to 3 Kg in body weight, were used for the study.\nAn eye drop formulation of the invention, was prepared as follows: High purity de-ionized (DI) water (500 ml) was filtered via a 0.2 micron filter. MSM (27 g), EDTA (13 g), and L-carnosine (5 g) were added to the filtered DI water, and mixed until visual transparency was achieved, indicating dissolution. The mixture was poured into 10 ml bottles each having a dropper cap. On a weight percent basis, the eye drops had the following composition: […]"}, "[2]": {"settings": "in the absence of MSM"}, "[3]": {"settings": "not told", "from_the_text": "(§1) The same study design and experimental setup was used as described in the above experiments."}, "rat lens organ culture": {"test_system": "rat lens organ culture", "assay": "Oxidation-induced toxicity in rat lens organ culture (Example 26)", "assay_type": "cell-based", "settings": "7 days", "text": "Materials. […] All cell culture medium components were from Invitrogen. Animals. […] Lens Culture. The rat lenses were dissected and washed with 1% penicillin/streptomycin in sterile PBS. […] The lenses were visualized under a Nikon Eclipse 200 and photographs were taken using a Multidimensional Imaging System. [table] Experimental Procedure. 1. Sacrificed seven rats, removed the eyeballs as soon as possible, and put them into a tube containing PBS with 0.1% gentamicin. 2. Dissected the lenses immediately and washed with PBS. 3. […] Each treatment was performed in 2 wells. Final concentrations for the six treatments were as follows: […] After 7 days of lens culture, took photographs and determined level of light transparency through the lenses."}, "[4]": {"settings": "@ 79° F.; cited from earlier work"}, "[5]": {"test_system": "Human lens epithelial cells (HLEC)", "assay": "Cell viability following oxidation-induced toxicity in human lens epithelial cells (Example 27)", "assay_type": "cell-based", "settings": "oxidants, 16 hrs; 4 mM MSM, 0.5 mM EDTA", "method": "Materials. […] All cell culture medium components were from Invitrogen. Cell Culture and Treatment. […] Cell Viability. Cell survival was determined by Trypan Blue staining and counting with a hemocytometer. Dead cells stain blue, while live cells exclude Trypan Blue. Cell viability is represented as the number of live cells divided by the total number of cells, expressed as a percentage. [[[…]]] Experimental Procedure. 1. Seeded 0.5×10^5/ml of HLEC (Passage 5) into three 12-well plates, incubated at 37° C. for overnight. 2. […] Added the oxidation reagents and MSM and/or EDTA to the proper wells. […] Ferrous ammonium sulfate (FAS) 10 μM, ADP 100 μM, H2O2 100 μM • Fenton': FAS 10 μM, ADP 100 μM, H2O2 100 μM • Ferric Chloride: […]"}, "[6]": {"settings": "54 mg MSM/ml", "from_the_text": "as §1"}, "[7]": {"settings": "5 days after one drop of Formulation 1, per rabbit eye"}}, "note": "“And” between values parts separate entries of the source, which are not always exact repeats. Equal values may be shown once."}
{"smiles": "O=C(O)CN(CCN(CC(=O)O)CC(=O)O)CC(=O)O", "note": "[EDTA, ethylenediamine tetraacetic acid]", "values": [{"measurement": "dose dependency of nanograms of EDTA in eye structures", "setting": "[1]; Eye Drop 1 (60.5 mM EDTA) versus Eye Drop 2 (12.5 mM EDTA)", "value": "Dose dependency was observed, particularly in the aqueous humor, the cornea, and the lens"}, {"measurement": "distribution among eye structures", "setting": "[1]; Eye Drop 1, two-hour time point", "value": "The majority of the EDTA was found in the aqueous humor"}, {"measurement": "Concentration of EDTA, aqueous humor", "setting": "in vivo; 3 days after one drop of Formulation 1, per rabbit eye", "value": "0.4 micrograms per milliliter and 0.7 micrograms per milliliter"}, {"measurement": "Concentration of EDTA, aqueous humor", "setting": "in vivo; [7]", "value": "0.5 micrograms per milliliter and 0.4 micrograms per milliliter"}, {"measurement": "Concentration of EDTA, vitreous humor", "setting": "in vivo; [7]", "value": "0.5 micrograms per milliliter and 0.7 micrograms per milliliter"}, {"measurement": "concentration at 15 min", "setting": "in vivo; male, rabbit, aqueous humor, topical, 1 drop of Formulation 1 per eye, Concentration of EDTA, aqueous humor, 15 min after one drop of Formulation 1, per rabbit eye, HPLC", "value": 1300, "unit": "ng/mL"}, {"measurement": "concentration at 30 min", "setting": "in vivo; male, rabbit, aqueous humor, topical, 1 drop of Formulation 1 per eye, Concentration of EDTA, aqueous humor, 30 min after one drop of Formulation 1, per rabbit eye", "value": 10700, "unit": "ng/mL"}, {"measurement": "concentration at 1 hr", "setting": "in vivo; male, rabbit, aqueous humor, topical, 1 drop of Formulation 1 per eye, Concentration of EDTA, aqueous humor, 1 hr after one drop of Formulation 1, per rabbit eye", "value": 5300, "unit": "ng/mL"}, {"measurement": "concentration at 4 hrs", "setting": "in vivo; male, rabbit, aqueous humor, topical, 1 drop of Formulation 1 per eye, Concentration of EDTA, aqueous humor, 4 hrs after one drop of Formulation 1, per rabbit eye", "value": 900, "unit": "ng/mL"}, {"measurement": "concentration at 3 days", "setting": "in vivo; male, rabbit, aqueous humor, topical, 1 drop of Formulation 1 per eye, Concentration of EDTA, aqueous humor, 3 days after one drop of Formulation 1, per rabbit eye", "value": 500, "unit": "ng/mL"}, {"measurement": "concentration at 5 days", "setting": "in vivo; male, rabbit, aqueous humor, topical, 1 drop of Formulation 1 per eye, Concentration of EDTA, aqueous humor, 5 days after one drop of Formulation 1, per rabbit eye", "value": 600, "unit": "ng/mL"}, {"measurement": "concentration at 30 min", "setting": "in vivo; male, rabbit, aqueous humor, topical, 1 drop of Formulation 1 per eye, concentration of EDTA in aqueous humor, 30 minutes following administration of Formulation 1", "value": 10700, "unit": "ng/mL"}, {"measurement": "concentration at 5 days", "setting": "in vivo; male, rabbit, vitreous humor, topical, 1 drop of Formulation 1 per eye, Concentration of EDTA, vitreous humor, 5 days after one drop of Formulation 1, per rabbit eye", "value": 600, "unit": "ng/mL"}, {"measurement": "amount present in the aqueous humor", "setting": "[2]", "value": "very little"}]}
{"smiles": "NCCC(=O)N[C@@H](Cc1cnc[nH]1)C(=O)O", "note": "[L-carnosine]", "values": [{"measurement": "increase of permeation over control", "setting": "[3]", "value": "about 2.5%"}]}
{"smiles": "CS(C)(=O)=O", "note": "[MSM, methylsulfonylmethane]", "values": [{"measurement": "Light transmission through the lens, of control", "setting": "rat lens organ culture; 1 mM ascorbate + 100 μM hydrogen peroxide, oxidant alone 32%, 4 mM MSM, 0.5 mM EDTA", "value": 57, "unit": "%"}, {"measurement": "Light transmission through the lens, of untreated control", "setting": "rat lens organ culture; 50 mM glucose, glucose alone 45%, 4 mM MSM, 0.5 mM EDTA", "value": 68, "unit": "%"}, {"measurement": "lens opacification in photographs of the lens culture", "setting": "rat lens organ culture; glucose or ascorbate plus hydrogen peroxide", "value": "mitigated lens opacification by both oxidants"}, {"measurement": "water solubility", "setting": "[4]", "value": 34, "unit": "% w/v"}, {"measurement": "percent cell viability (Trypan Blue)", "setting": "[5]", "value": "increased the percent cell viability for all oxidants"}]}
{"smiles": "N[C@@H](CCC(=O)N[C@@H](CS)C(=O)NCC(=O)O)C(=O)O", "note": "[glutathione]", "values": [{"measurement": "effect of MSM on the diffusion rate", "setting": "[6]", "value": "no effect"}]}
